# Experimental data from patent publication EP0908457B1, “3-(1,2-benzisothiazol- and isoxazol-5-Y1)-2,4(1H,3H)-pyrimidinedione or thione and 3-(1,2-benzisothiazol- and isoxazol-5-y1)-4(3H)-pyrimidinone or thione herbicidal agents” (BASF AKTIENGESELLSCHAFT, priority 1997, dated 1999).
# Key:
# [1] = system: Monochoria vaginalis, Presl.; assay: Preemergence weed control under flooded paddy conditions, MOOVA (Monochoria); type: in vivo; conditions: flooded paddy; for MOOVA herbicidal effect rating / herbicidal effect rating, MOOVA: preemergence; for MOOVA: preemergence weeds, herbicidal effect rating 0-9, three to four weeks after treatment
# Sagittaria pygmaea, L. = assay: Preemergence weed control under flooded paddy conditions, SAGPY (Arrowhead (Pygmaea)); type: in vivo; conditions: flooded paddy; for SAGPY herbicidal effect rating / herbicidal effect rating, SAGPY: preemergence; for SAGPY: preemergence weeds, herbicidal effect rating 0-9, three to four weeks after treatment
# [2] = system: Oryza sativa, (L.) Tebonnet; assay: Rice tolerance to post-transplant applications under flooded paddy conditions (Example 187), ORYSAT (Rice, Tebonnet); conditions: for ORYSAT: herbicidal effect rating 0-9, three to four weeks after treatment; for herbicidal effect rating ORYSAT: meaning of each grade not given here
# [3] = system: Echinochloa oryzoides (Ard.) Fritsch.; assay: Preemergence weed control under flooded paddy conditions, ECHORC (Watergrass (Calif.)); type: in vivo; conditions: flooded paddy; for ECHORC herbicidal effect rating / herbicidal effect rating, ECHORC: preemergence; for ECHORC: preemergence weeds, herbicidal effect rating 0-9, three to four weeks after treatment
# [4] = system: Cyperus serotinus, Rottb.; assay: Preemergence weed control under flooded paddy conditions, CYPSE (Flatsedge); type: in vivo; conditions: for CYPSE herbicidal effect rating / herbicidal effect rating, CYPSE: preemergence; for CYPSE: preemergence weeds, herbicidal effect rating 0-9, three to four weeks after treatment
# Cyperus iria = assay: Preemergence weed control under flooded paddy conditions, CYPIR (Rice Flatsedge); type: in vivo; conditions: flooded paddy; for CYPIR herbicidal effect rating / herbicidal effect rating, CYPIR: preemergence; for CYPIR: preemergence weeds, herbicidal effect rating 0-9, three to four weeks after treatment
# [5] = Rate 0.0313 kg/ha, rated three to four weeks after treatment
# [6] = Rate 0.0625 kg/ha, rated three to four weeks after treatment
# [7] = Rate 0.1250 kg/ha, rated three to four weeks after treatment
# [8] = Rate 0.2500 kg/ha, rated three to four weeks after treatment
# [9] = Rate 0.0320 kg/ha, rated three to four weeks after treatment
# [10] = Rate 0.0620 kg/ha, rated three to four weeks after treatment
# [11] = Rate 0.0320 kg/ha, rated 3-4 weeks after treatment
# [12] = Rate 0.0620 kg/ha, rated 3-4 weeks after treatment
# [13] = Rate 0.1250 kg/ha, rated 3-4 weeks after treatment
# [14] = Rate 0.2500 kg/ha, rated 3-4 weeks after treatment
# [15] = Rate 0.5000 kg/ha, rated three to four weeks after treatment
smiles,measurement,setting,value
"Cc1nsc2ccc(-n3c(=O)cc(C(F)(F)F)n(CC#N)c3=O)cc12 [Example 213, 3,4-Dihydro-3-(3-methyl-1,2-benzisothiazol-5-yl)-2,4-dioxo-6-(trifluoromethyl)-1(2H)-pyrimidineacetonitrile]",MOOVA herbicidal effect rating,[1]; [5],0.0
same,MOOVA herbicidal effect rating,[1]; [6],0.0
same,MOOVA herbicidal effect rating,[1]; [7],0.0
same,MOOVA herbicidal effect rating,[1]; [8],2.0
same,SAGPY herbicidal effect rating,"Sagittaria pygmaea, L.; [5]",0.0
same,SAGPY herbicidal effect rating,"Sagittaria pygmaea, L.; [6]",0.0
same,SAGPY herbicidal effect rating,"Sagittaria pygmaea, L.; [7]",0.0
same,SAGPY herbicidal effect rating,"Sagittaria pygmaea, L.; [8]",0.0
same,ORYSAT herbicidal effect rating,[2]; [5],3.0
same,ORYSAT herbicidal effect rating,[2]; [6],4.0
same,ORYSAT herbicidal effect rating,[2]; [7],6.0
same,ORYSAT herbicidal effect rating,[2]; [8],7.0
same,ECHORC herbicidal effect rating,[3]; [5],0.0
same,ECHORC herbicidal effect rating,[3]; [6],0.0
same,ECHORC herbicidal effect rating,[3]; [7],0.0
same,ECHORC herbicidal effect rating,[3]; [8],0.0
same,CYPSE herbicidal effect rating,[4]; [5],0.0
same,CYPSE herbicidal effect rating,[4]; [6],0.0
same,CYPSE herbicidal effect rating,[4]; [7],0.0
same,CYPSE herbicidal effect rating,[4]; [8],0.0
same,CYPIR herbicidal effect rating,Cyperus iria; [5],0.0
same,CYPIR herbicidal effect rating,Cyperus iria; [6],0.0
same,CYPIR herbicidal effect rating,Cyperus iria; [7],0.0
"Cn1c(C(F)(F)F)cc(=O)n(-c2ccc3snc(COC4CCCCO4)c3c2)c1=O (centres unmarked) [Example 456, 2,4(1H,3H)-Pyrimidinedione, 1-methyl-3-{3-{[(tetrahydro-2H-pyran-2-yl)oxy]methyl}-1,2-benzisothiazol-5-yl}-6-(trifluoromethyl)-]",MOOVA,[1]; 0.0320 kg/ha,7.0
same,MOOVA,[1]; 0.0620 kg/ha,9.0
same,MOOVA,[1]; 0.1250 kg/ha,9.0
same,MOOVA,[1]; 0.2500 kg/ha,9.0
same,SAGPY,"Sagittaria pygmaea, L.; 0.0320 kg/ha",0.0
same,SAGPY,"Sagittaria pygmaea, L.; 0.0620 kg/ha",0.0
same,SAGPY,"Sagittaria pygmaea, L.; 0.1250 kg/ha",2.0
same,SAGPY,"Sagittaria pygmaea, L.; 0.2500 kg/ha",4.0
same,ORYSAT,[2]; 0.0320 kg/ha,7.0
same,ORYSAT,[2]; 0.0620 kg/ha,8.0
same,ORYSAT,[2]; 0.1250 kg/ha,8.0
same,ORYSAT,[2]; 0.2500 kg/ha,9.0
same,ECHORC,[3]; 0.0320 kg/ha,4.0
same,ECHORC,[3]; 0.0620 kg/ha,6.0
same,ECHORC,[3]; 0.1250 kg/ha,7.0
same,ECHORC,[3]; 0.2500 kg/ha,9.0
same,CYPSE,[4]; 0.0320 kg/ha,0.0
same,CYPSE,[4]; 0.0620 kg/ha,0.0
same,CYPSE,[4]; 0.1250 kg/ha,2.0
same,CYPSE,[4]; 0.2500 kg/ha,4.0
same,CYPIR,Cyperus iria; 0.0320 kg/ha,0.0
same,CYPIR,Cyperus iria; 0.0620 kg/ha,4.0
same,CYPIR,Cyperus iria; 0.1250 kg/ha,6.0
same,CYPIR,Cyperus iria; 0.2500 kg/ha,6.0
"Cn1c(C(F)(F)F)cc(=O)n(-c2ccc3snc(C#N)c3c2)c1=O [Example 373, 1,2-Benzisothiazole-3-carbonitrile, 5-[3,6-dihydro-3-methyl-2,6-dioxo-4-(trifluoromethyl)-1(2H)-pyrimidinyl]-]","herbicidal effect rating, MOOVA",[1]; [9],9.0
same,"herbicidal effect rating, MOOVA",[1]; [10],9.0
same,"herbicidal effect rating, MOOVA",[1]; [7],9.0
same,"herbicidal effect rating, MOOVA",[1]; [8],9.0
same,"herbicidal effect rating, SAGPY","Sagittaria pygmaea, L.; [9]",5.5
same,"herbicidal effect rating, SAGPY","Sagittaria pygmaea, L.; [10]",8.5
same,"herbicidal effect rating, SAGPY","Sagittaria pygmaea, L.; [7]",9.0
same,"herbicidal effect rating, SAGPY","Sagittaria pygmaea, L.; [8]",9.0
same,herbicidal effect rating ORYSAT,[2]; [9],5.5
same,herbicidal effect rating ORYSAT,[2]; [10],6.5
same,herbicidal effect rating ORYSAT,[2]; [7],6.0
same,herbicidal effect rating ORYSAT,[2]; [8],8.0
same,"herbicidal effect rating, ECHORC",[3]; [9],6.5
same,"herbicidal effect rating, ECHORC",[3]; [10],9.0
same,"herbicidal effect rating, ECHORC",[3]; [7],9.0
same,"herbicidal effect rating, ECHORC",[3]; [8],9.0
same,"herbicidal effect rating, CYPSE",[4]; [9],2.0
same,"herbicidal effect rating, CYPSE",[4]; [10],5.0
same,"herbicidal effect rating, CYPSE",[4]; [7],7.5
same,"herbicidal effect rating, CYPSE",[4]; [8],8.0
same,"herbicidal effect rating, CYPIR",Cyperus iria; [9],6.5
same,"herbicidal effect rating, CYPIR",Cyperus iria; [10],9.0
same,"herbicidal effect rating, CYPIR",Cyperus iria; [7],9.0
same,"herbicidal effect rating, CYPIR",Cyperus iria; [8],9.0
"Cc1ccc(OCC(=O)OCC(C)(C)Cc2ccccc2)c(-c2nsc3ccc(-n4c(=O)cc(C(F)(F)F)n(C)c4=O)cc23)c1 [Example 527, Acetic acid, {{2-{5-[3,6-dihydro-3-methyl-2,6-dioxo-4-(trifluoromethyl)-1(2H)-pyrimidinyl)-1,2-benzisothiazol-3-yl}-p-tolyl}oxy}-, 2,2-dimethyl-3-phenylpropyl ester]","herbicidal effect rating, MOOVA",[1]; [11],9.0
same,"herbicidal effect rating, MOOVA",[1]; [12],9.0
same,"herbicidal effect rating, MOOVA",[1]; [13],9.0
same,"herbicidal effect rating, MOOVA",[1]; [14],9.0
same,"herbicidal effect rating, SAGPY","Sagittaria pygmaea, L.; [11]",0.0
same,"herbicidal effect rating, SAGPY","Sagittaria pygmaea, L.; [12]",0.0
same,"herbicidal effect rating, SAGPY","Sagittaria pygmaea, L.; [13]",0.0
same,"herbicidal effect rating, SAGPY","Sagittaria pygmaea, L.; [14]",0.0
same,herbicidal effect rating ORYSAT,[2]; [11],2.0
same,herbicidal effect rating ORYSAT,[2]; [12],2.5
same,herbicidal effect rating ORYSAT,[2]; [13],2.5
same,herbicidal effect rating ORYSAT,[2]; [14],4.0
same,"herbicidal effect rating, ECHORC",[3]; [11],3.0
same,"herbicidal effect rating, ECHORC",[3]; [12],8.0
same,"herbicidal effect rating, ECHORC",[3]; [13],9.0
same,"herbicidal effect rating, ECHORC",[3]; [14],9.0
same,"herbicidal effect rating, CYPSE",[4]; [11],0.0
same,"herbicidal effect rating, CYPSE",[4]; [12],0.0
same,"herbicidal effect rating, CYPSE",[4]; [13],0.0
same,"herbicidal effect rating, CYPSE",[4]; [14],0.0
same,"herbicidal effect rating, CYPIR",Cyperus iria; [11],2.0
same,"herbicidal effect rating, CYPIR",Cyperus iria; [12],2.0
same,"herbicidal effect rating, CYPIR",Cyperus iria; [13],4.0
same,"herbicidal effect rating, CYPIR",Cyperus iria; [14],4.0
"Cn1c(C(F)(F)F)cc(=O)n(-c2ccc3snc(C(=O)NS(=O)(=O)c4cccs4)c3c2)c1=O [Example 391, 1,2-Benzisothiazole-3-carboxamide, 5-[3,6-dihydro-3-methyl-2,6-dioxo-4-(trifluoromethyl)-1(2H)-pyrimidinyl]-N-(2-thienylsulfonyl)-]","herbicidal effect rating, MOOVA",[1]; [9],6.0
same,"herbicidal effect rating, MOOVA",[1]; [10],9.0
same,"herbicidal effect rating, MOOVA",[1]; [7],9.0
same,"herbicidal effect rating, MOOVA",[1]; [8],9.0
same,"herbicidal effect rating, MOOVA",[1]; [15],9.0
same,"herbicidal effect rating, SAGPY","Sagittaria pygmaea, L.; [9]",6.0
same,"herbicidal effect rating, SAGPY","Sagittaria pygmaea, L.; [10]",6.0
same,"herbicidal effect rating, SAGPY","Sagittaria pygmaea, L.; [7]",7.0
same,"herbicidal effect rating, SAGPY","Sagittaria pygmaea, L.; [8]",7.0
same,"herbicidal effect rating, SAGPY","Sagittaria pygmaea, L.; [15]",9.0
same,herbicidal effect rating ORYSAT,[2]; [9],2.0
same,herbicidal effect rating ORYSAT,[2]; [10],2.0
same,herbicidal effect rating ORYSAT,[2]; [7],3.0
same,herbicidal effect rating ORYSAT,[2]; [8],3.0
same,herbicidal effect rating ORYSAT,[2]; [15],3.0
same,"herbicidal effect rating, ECHORC",[3]; [9],0.0
same,"herbicidal effect rating, ECHORC",[3]; [10],0.0
same,"herbicidal effect rating, ECHORC",[3]; [7],2.0
same,"herbicidal effect rating, ECHORC",[3]; [8],4.0
same,"herbicidal effect rating, ECHORC",[3]; [15],6.0
same,"herbicidal effect rating, CYPSE",[4]; [9],0.0
same,"herbicidal effect rating, CYPSE",[4]; [10],0.0
same,"herbicidal effect rating, CYPSE",[4]; [7],0.0
same,"herbicidal effect rating, CYPSE",[4]; [8],0.0
same,"herbicidal effect rating, CYPSE",[4]; [15],3.0
same,"herbicidal effect rating, CYPIR",Cyperus iria; [9],3.0
same,"herbicidal effect rating, CYPIR",Cyperus iria; [10],3.0
same,"herbicidal effect rating, CYPIR",Cyperus iria; [7],4.0
same,"herbicidal effect rating, CYPIR",Cyperus iria; [8],6.0
same,"herbicidal effect rating, CYPIR",Cyperus iria; [15],9.0
"Cn1c(C(F)(F)F)cc(=O)n(-c2ccc3snc(COC4C=CCCC4)c3c2)c1=O (centres unmarked) [Example 209, 3-{3-[(2-Cyclohexen-1-yloxy)methyl]-1,2-benzisothiazol-5-yl}-1-methyl-6-(trifluoromethyl)-2,4(1H,3H)-pyrimidinedione]",MOOVA herbicidal effect rating,[1]; [5],0.0
same,MOOVA herbicidal effect rating,[1]; [6],0.0
same,MOOVA herbicidal effect rating,[1]; [7],0.0
same,SAGPY herbicidal effect rating,"Sagittaria pygmaea, L.; [5]",0.0
same,SAGPY herbicidal effect rating,"Sagittaria pygmaea, L.; [6]",0.0
same,SAGPY herbicidal effect rating,"Sagittaria pygmaea, L.; [7]",0.0
same,ORYSAT herbicidal effect rating,[2]; [5],3.0
same,ORYSAT herbicidal effect rating,[2]; [6],3.0
same,ORYSAT herbicidal effect rating,[2]; [7],4.0
same,ECHORC herbicidal effect rating,[3]; [5],1.0
same,ECHORC herbicidal effect rating,[3]; [6],2.0
same,ECHORC herbicidal effect rating,[3]; [7],2.0
same,CYPSE herbicidal effect rating,[4]; [5],0.0
same,CYPSE herbicidal effect rating,[4]; [6],0.0
same,CYPSE herbicidal effect rating,[4]; [7],0.0
same,CYPIR herbicidal effect rating,Cyperus iria; [5],2.0
same,CYPIR herbicidal effect rating,Cyperus iria; [6],4.0
same,CYPIR herbicidal effect rating,Cyperus iria; [7],8.0
